Where a name gives a salt, the structure may show the parent alone.
molecular target: T1, NMDA-receptor subtype 2B (Rattus norvegicus, UniProt P35439+Q00960); assay: 3H-Ro 25-6981 binding (displacement) on rat brain membranes; conditions: displacement of 5 nM 3H-Ro 25-6981, rat whole brain (minus cerebellum and medulla oblongata) membranes, 2 hours at 4° C., Tris-HCl 50 mM pH 7.4
T1 construct: Membranes were prepared by homogenization of the whole brain minus cerebellum and medulla oblongata; from tissue; host or cells: rat whole brain minus cerebellum and medulla oblongata (membranes)
Experimental: ^3H-Ro 25-6981 binding (Ro 25-6981 is [R-(R*,S*)]-α-(4-hydroxy-phenyl)-β-methyl-4-(phenyl-methyl)-1-piperidine propanol)
Male Füllinsdorf albino rats weighing between 150-200 g were used. Membranes were prepared by homogenization of the whole brain minus cerebellum and medulla oblongata with a Polytron (10.000 rpm, 30 seconds), in 25 volumes of a cold Tris-HCl 50 mM, EDTA 10 mM, pH 7.1 buffer. The homogenate was centrifuged at 48,000 g for 10 minutes at 4° C. The pellet was resuspended using the Polytron in the same volume of buffer and the homogenate was incubated at 37° C. for 10 minutes. After centrifugation the pellet was homogenized in the same buffer and frozen at −80° C. for at least 16 hours but not more than 10 days. For the binding assay the homogenate was thawed at 37° C., centrifuged and the pellet was washed three times as above in a Tris-HCl 5 mM, pH 7.4 cold buffer. The final pellet was resuspended in the same buffer and used at a final concentration of […].
^3H-Ro 25-6981 binding experiments were performed using a Tris-HCl 50 mM, pH 7.4 buffer. For displacement experiments 5 nM of ^3H-Ro 25-6981 were used and non specific binding was measured using 10 mM of tetrahydroisoquinoline and usually it accounts for 10% of the total. The incubation time was 2 hours at 4° C. and the assay was stopped by filtration on Whatmann GF/B glass fiber filters (Unifilter-96, Packard, Zürich, Switzerland). The filters were washed 5 times with cold buffer. The radioactivity on the filter was counted on a Packard Top-coullt microplate scintillation counter after addition of […] of microscint 40 (Canberra Packard S.A., Zürich, Switzerland).
The effects of compounds were measured using a minimum of 8 concentrations and repeated at least once. The pooled normalized values were analyzed using a non-linear regression calculation program which provide IC50 with their relative upper and lower 95% confidence limits.

T1 sequence (Q00960 27-1482, other chains not shown): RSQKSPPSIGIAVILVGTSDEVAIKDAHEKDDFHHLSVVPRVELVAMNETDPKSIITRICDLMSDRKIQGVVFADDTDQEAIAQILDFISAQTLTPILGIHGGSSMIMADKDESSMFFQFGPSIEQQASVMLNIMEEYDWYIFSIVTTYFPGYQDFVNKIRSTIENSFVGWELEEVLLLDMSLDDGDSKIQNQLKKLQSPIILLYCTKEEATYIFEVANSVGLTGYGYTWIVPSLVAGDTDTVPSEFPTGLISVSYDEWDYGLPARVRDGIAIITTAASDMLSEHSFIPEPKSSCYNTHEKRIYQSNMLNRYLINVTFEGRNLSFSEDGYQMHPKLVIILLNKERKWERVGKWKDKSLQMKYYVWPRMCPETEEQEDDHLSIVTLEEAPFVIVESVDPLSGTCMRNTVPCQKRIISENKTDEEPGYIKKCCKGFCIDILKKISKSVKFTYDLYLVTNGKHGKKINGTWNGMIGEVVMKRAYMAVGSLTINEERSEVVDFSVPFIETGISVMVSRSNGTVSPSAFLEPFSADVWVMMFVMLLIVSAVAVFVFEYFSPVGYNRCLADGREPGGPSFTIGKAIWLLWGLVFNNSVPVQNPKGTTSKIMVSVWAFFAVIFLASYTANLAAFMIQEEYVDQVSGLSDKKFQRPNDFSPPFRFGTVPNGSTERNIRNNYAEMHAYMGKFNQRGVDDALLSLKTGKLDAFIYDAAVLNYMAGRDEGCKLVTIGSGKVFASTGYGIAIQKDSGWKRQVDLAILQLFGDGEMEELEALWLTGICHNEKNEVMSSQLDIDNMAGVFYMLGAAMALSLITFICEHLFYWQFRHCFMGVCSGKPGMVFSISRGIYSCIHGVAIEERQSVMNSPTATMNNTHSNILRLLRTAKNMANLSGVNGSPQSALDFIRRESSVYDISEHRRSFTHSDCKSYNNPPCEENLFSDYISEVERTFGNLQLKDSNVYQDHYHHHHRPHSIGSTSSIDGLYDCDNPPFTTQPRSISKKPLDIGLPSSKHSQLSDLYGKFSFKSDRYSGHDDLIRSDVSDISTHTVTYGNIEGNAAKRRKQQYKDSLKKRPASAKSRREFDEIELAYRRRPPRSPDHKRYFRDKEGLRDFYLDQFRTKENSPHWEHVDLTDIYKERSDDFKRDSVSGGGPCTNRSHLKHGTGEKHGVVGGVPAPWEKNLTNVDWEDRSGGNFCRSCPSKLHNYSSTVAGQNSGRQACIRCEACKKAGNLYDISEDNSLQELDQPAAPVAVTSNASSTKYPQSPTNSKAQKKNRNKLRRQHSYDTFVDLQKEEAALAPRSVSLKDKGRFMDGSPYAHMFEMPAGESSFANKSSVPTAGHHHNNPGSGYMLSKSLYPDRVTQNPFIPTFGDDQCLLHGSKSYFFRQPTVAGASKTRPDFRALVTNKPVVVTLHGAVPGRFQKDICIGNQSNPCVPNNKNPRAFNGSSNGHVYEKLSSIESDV

In order of falling IC50:
1. COc1cccc2c(-c3cnnc(Cn4ccnc4C)c3)cccc12 [Example 36, 5-(5-Methoxy-naphthalen-1-yl)-3-(2-methyl-imidazol-1-yl-methyl)-pyridazine hydrochloride]  0.077 µM
2. Cc1nccn1Cc1cc(-c2cccc(C(C)(C)C)c2)cnn1 [Example 34, 5-(3-tert-Butyl-phenyl)-3-(2-methyl-imidazol-1-yl-methyl)-pyridazine hydrochloride]  0.068 µM
3. Cc1nccn1Cc1cc(-c2cccc(C(F)F)c2)cnn1 [Example 25, 5-(3-Difluoromethyl-phenyl)-3-(2-methyl-imidazol-1-yl-methyl)-pyridazine hydrochloride]  0.058 µM
4. Cc1nccn1Cc1cc(-c2ccc3c4c(cccc24)CC3)cnn1 [Example 45, 5-Acenaphthen-5-yl-3-(2-methyl-imidazol-1-yl-methyl)-pyridazine hydrochloride]  0.057 µM
5. COc1cc(-c2cnnc(Cn3ccnc3C)c2)cc(C(F)(F)F)c1 [Example 38, 5-(3-Methoxy-5-trifluoromethyl-phenyl)-3-(2-methyl-imidazol-1-yl-methyl)-pyridazine hydrochloride]  0.054 µM
6. Cc1nccn1Cc1cc(-c2cccc(C(C)C)c2)cnn1 [Example 42, 5-(3-Isopropyl-phenyl)-3-(2-methyl-imidazol-1-yl-methyl)-pyridazine hydrochloride]  0.048 µM
7. Cc1nccn1Cc1cc(-c2cc(F)cc(C(F)F)c2)cnn1 [Example 24, 5-(3-Difluoromethyl-5-fluoro-phenyl)-3-(2-methyl-imidazol-1-yl-methyl)-pyridazine hydrochloride]  0.047 µM
8. COc1ccc2cc(-c3cnnc(Cn4ccnc4C)c3)ccc2c1 [Example 27, 5-(6-Methoxy-naphthalen-2-yl)-3-(2-methyl-imidazol-1-yl-methyl)-pyridazine hydrochloride]  0.044 µM
9. COc1cc(-c2cnnc(Cn3ccnc3C)c2)ccc1Cl [Example 41, 5-(4-Chloro-3-methoxy-phenyl)-3-(2-methyl-imidazol-1-yl-methyl)-pyridazine hydrochloride]  0.041 µM
10. Cc1nccn1Cc1cc(-c2ccc(F)c(C(F)(F)F)c2)cnn1 [Example 3, 5-(4-Fluoro-3-trifluoromethyl-phenyl)-3-(2-methyl-imidazol-1-yl-methyl)-pyridazine hydrochloride]  0.038 µM
11. Cc1nccn1Cc1cc(-c2cccc(C(F)(F)F)c2F)cnn1 [Example 58, 5-(2-Fluoro-3-trifluoromethyl-phenyl)-3-(2-methyl-imidazol-1-yl-methyl)-pyridazine hydrochloride]  0.037 µM
12. COc1ccc2ccc(-c3cnnc(Cn4ccnc4C)c3)cc2c1 [Example 48, 5-(7-Methoxy-naphthalen-2-yl)-3-(2-methyl-imidazol-1-yl-methyl)-pyridazine hydrochloride]  0.035 µM
13. Cc1nccn1Cc1cc(-c2cccc(C(C)(F)F)c2)cnn1 [Example 9, 5-[3-(1,1-Difluoro-ethyl)-phenyl]-3-(2-methyl-imidazol-1-yl-methyl)-pyridazine hydrochloride]  0.034 µM
14. COc1cc(-c2cnnc(Cn3ccnc3C)c2)c2ccccc2c1 [Example 49, 5-(3-Methoxy-naphthalen-1-yl)-3-(2-methyl-imidazol-1-yl-methyl)-pyridazine hydrochloride]  0.034 µM
15. Cc1nccn1Cc1cc(-c2cc(F)cc(C(C)(F)F)c2)cnn1 [Example 31, 5-[3-(1,1-Difluoro-ethyl)-5-fluoro-phenyl]-3-(2-methyl-imidazol-1-yl-methyl)-pyridazine hydrochloride]  0.031 µM
16. Cc1nccn1Cc1cc(-c2ccc(F)c(C(C)(F)F)c2)cnn1 [Example 11, 5-[3-(1,1-Difluoro-ethyl)-4-fluoro-phenyl]-3-(2-methyl-imidazol-1-yl-methyl)-pyridazine hydrochloride]  0.029 µM
17. Cc1nccn1Cc1cc(-c2ccc(F)c3ccccc23)cnn1 [Example 50, 5-(4-Fluoro-naphthalen-1-yl)-3-(2-methyl-imidazol-1-yl-methyl)-pyridazine hydrochloride]  0.029 µM
18. Cc1nccn1Cc1cc(-c2ccc(Cl)c(C(F)(F)F)c2)cnn1 [Example 4, 5-(4-Chloro-3-trifluoromethyl-phenyl)-3-(2-methyl-imidazol-1-yl-methyl)-pyridazine hydrochloride]  0.027 µM
19. Cc1nccn1Cc1cc(C2=Cc3ccccc3CC2)cnn1 [Example 68, 5-(3,4-Dihydro-naphthalen-2-yl)-3-(2-methyl-imidazol-1-yl-methyl)-pyridazine hydrochloride]  0.027 µM
20. 5-(3-Difluoromethyl-4-fluoro-phenyl)-3-(2-ethyl-imidazol-1-ylethyl)-pyridazine hydrochloride [Example 52]  0.026 µM
21. Cc1nccn1Cc1cc(-c2cccc3ccccc23)cnn1 [Example 35, 3-(2-Methyl-imidazol-1-yl-methyl)-5-naphthalen-1-yl-pyridazine hydrochloride]  0.025 µM
22. Cc1nccn1Cc1cc(-c2ccc(Cl)c(C(C)(F)F)c2)cnn1 [Example 39, 5-[4-Chloro-3-(1,1-difluoro-ethyl)-phenyl]-3-(2-methyl-imidazol-1-yl-methyl)-pyridazine hydrochloride]  0.024 µM
23. Cc1nccn1Cc1cc(-c2ccc3ccccc3c2)cnn1 [Example 12, 3-(2-Methyl-imidazol-1-ylmethyl)-5-naphthalen-2-yl-pyridazine-hydrochloride]  0.022 µM
24. Cc1nccn1Cc1cc(-c2ccc(F)c(Cl)c2)cnn1 [Example 1, 5-(3-Chloro-4-fluoro-phenyl)-3-(2-methyl-imidazol-1-yl-methyl)-pyridazine Hydrochloride]  0.021 µM
25. Cc1nccn1Cc1cc(-c2cccc(C3CC3)c2)cnn1 [Example 14, 5-(3-Cyclopropyl-phenyl)-3-(2-methyl-imidazol-1-yl-methyl)-pyridazine hydrochloride]  0.02 µM
26. Cc1nccn1Cc1cc(-c2ccc(F)c(C(F)F)c2)cnn1 [Example 6, 5-(3-Difluoromethyl-4-fluoro-phenyl)-3-(2-methyl-imidazol-1-yl-methyl)-pyridazine hydrochloride]  0.017 µM
27. Cc1nccn1Cc1cc(-c2ccc3sccc3c2)cnn1 [Example 15, 5-Benzo[b]thiophen-5-yl-3-(2-methyl-imidazol-1-yl-methyl)-pyridazine hydrochloride]  0.016 µM
28. Cc1nccn1Cc1cc(-c2ccc(Cl)c(C(F)F)c2)cnn1 [Example 26, 5-(4-Chloro-3-difluoromethyl-phenyl)-3-(2-methyl-imidazol-1-yl-methyl)-pyridazine hydrochloride]  0.012 µM
29. Cc1nccn1Cc1cc(-c2ccc(Cl)c(Cl)c2)cnn1 [Example 13, 5-(3,4-Dichloro-phenyl)-3-(2-methyl-imidazol-1-yl-methyl)-pyridazine hydrochloride]  0.011 µM
30. Cc1cc(-c2cnnc(Cn3ccnc3C)c2)ccc1F [Example 16, 5-(4-Fluoro-3-methyl-phenyl)-3-(2-methyl-imidazol-1-yl-methyl)-pyridazine hydrochloride]  0.01 µM
31. Cc1cc(-c2cnnc(Cn3ccnc3C)c2)ccc1Cl [Example 30, 5-(4-Chloro-3-methyl-phenyl)-3-(2-methyl-imidazol-1-yl-methyl)-pyridazine hydrochloride]  0.007 µM

From patent US7005432B2, “Substituted imidazol-pyridazine derivatives” (Hoffman-La Roche Inc., priority 2002, dated 2006)
